The values below come from patent US10202389B2, “Pyrazolopyrimidinyl inhibitors of ubiquitin-activating enzyme” (Millennium Pharmaceuticals, Inc., priority 2012, dated 2019).

In this assay the target is recombinant human UAE (Homo sapiens (Human), UniProt P22314). Briefly: Ubiquitin Activating Enzyme (UAE) HTRF Assay. Conditions: read-out: % inhibition @0.111 μM.

The term inhibition denotes the relative decrease from the control value, in per cent.

recombinant human UAE, sequence (P22314 whole entry): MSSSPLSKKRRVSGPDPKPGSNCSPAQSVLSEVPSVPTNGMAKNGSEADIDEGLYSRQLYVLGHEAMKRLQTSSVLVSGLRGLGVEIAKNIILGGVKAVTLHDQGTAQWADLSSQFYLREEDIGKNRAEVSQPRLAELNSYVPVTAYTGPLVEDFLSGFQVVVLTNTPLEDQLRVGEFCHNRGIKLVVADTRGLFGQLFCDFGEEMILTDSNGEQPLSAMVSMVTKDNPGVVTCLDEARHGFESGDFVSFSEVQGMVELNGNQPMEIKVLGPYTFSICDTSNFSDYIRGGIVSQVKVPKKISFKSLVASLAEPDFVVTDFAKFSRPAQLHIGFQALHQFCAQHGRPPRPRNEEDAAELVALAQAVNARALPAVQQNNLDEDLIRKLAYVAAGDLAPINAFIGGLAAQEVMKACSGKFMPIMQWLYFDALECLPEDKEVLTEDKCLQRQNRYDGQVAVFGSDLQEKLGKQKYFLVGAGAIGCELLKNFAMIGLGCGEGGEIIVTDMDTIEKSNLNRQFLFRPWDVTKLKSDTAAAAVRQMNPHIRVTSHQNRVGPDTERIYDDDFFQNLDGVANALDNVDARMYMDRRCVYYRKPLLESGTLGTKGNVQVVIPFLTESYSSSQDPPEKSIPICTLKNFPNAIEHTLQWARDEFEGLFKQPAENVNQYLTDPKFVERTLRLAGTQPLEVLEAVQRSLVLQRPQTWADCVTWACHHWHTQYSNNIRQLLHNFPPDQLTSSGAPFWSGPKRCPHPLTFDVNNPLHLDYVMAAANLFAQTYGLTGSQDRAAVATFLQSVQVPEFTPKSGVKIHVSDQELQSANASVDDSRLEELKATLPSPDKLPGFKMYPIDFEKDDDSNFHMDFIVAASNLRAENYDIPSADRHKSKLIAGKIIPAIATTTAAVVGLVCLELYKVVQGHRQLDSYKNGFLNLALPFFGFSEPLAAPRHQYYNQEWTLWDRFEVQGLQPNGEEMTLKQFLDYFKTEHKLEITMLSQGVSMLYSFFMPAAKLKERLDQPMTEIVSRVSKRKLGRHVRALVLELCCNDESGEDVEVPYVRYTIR
Method: After incubation for 120 minutes, quantification of the FRET is performed on the Pherostar (BMG).
For compounds whose values are marked with an asterisk (*), mouse UAE was used. For all other compounds, human UAE was used.

For `NS(=O)(=O)OC[C@H]1C[C@@H](Nc2ccnc3cc(-c4cccc(-c5ccccc5)c4)nn23)[C@H](O)[C@@H]1O` (relative stereo) [Compound I-003, (rac)((1R,2R,3S,4R)-4-(2-(biphenyl-3-yl)pyrazolo[1,5-a]pyrimidin-7-ylamino)-2,3-dihydroxycyclopentyl)methyl rel-sulfamate], the inhibition at 0.111 µM stood at 100%.

`Cc1cc(N[C@@H]2C[C@H](COS(N)(=O)=O)[C@@H](O)[C@H]2O)n2nc(-c3ccccc3)cc2n1` (relative stereo) [Compound I-004, (rac)-{(1R,2R,3S,4R)-2,3-dihydroxy-4-[(5-methyl-2-phenylpyrazolo[1,5-a]pyrimidin-7-yl)amino]cyclopentyl}methyl rel-sulfamate]: the inhibition at 0.111 µM stood at 31%.

With `NS(=O)(=O)OC[C@H]1C[C@@H](Nc2cc(Cl)nc3cc(-c4ccccc4)nn23)[C@H](O)[C@@H]1O` (relative stereo) [Compound I-006, (rac)-{(1R,2R,3S,4R)-4-[(5-chloro-2-phenylpyrazolo[1,5-a]pyrimidin-7-yl)amino]-2,3-dihydroxycyclopentyl}methyl rel-sulfamate], the inhibition at 0.111 µM stood at 23%.

In the case of `NS(=O)(=O)OC[C@H]1C[C@@H](Nc2ccnc3cc(-c4cccc(C(F)(F)F)c4)nn23)[C@H](O)[C@@H]1O` (relative stereo) [Compound I-007, (rac)-((1R,2R,3S,4R)-2,3-Dihydroxy-4-((2-(3-(trifluoromethyl)phenyl)pyrazolo[1,5-a]pyrimidin-7-yl)amino)cyclopentyl)methyl rel-sulfamate], the inhibition at 0.111 µM was found to be 99%.

With `NS(=O)(=O)OC[C@H]1C[C@@H](Nc2cc(Cl)nc3cc(-c4ccc(Br)cc4)nn23)[C@H](O)[C@@H]1O` (relative stereo) [Compound I-008, (rac)-((1R,2R,3S,4R)-4-(2-(4-bromophenyl)-5-chloropyrazolo[1,5-a]pyrimidin-7-ylamino)-2,3-dihydroxycyclopentyl)methyl rel-sulfamate], the inhibition at 0.111 µM is 28%.

For the compound `NS(=O)(=O)OC[C@H]1C[C@@H](Nc2cc(Cl)nc3cc(-c4cccc5ccccc45)nn23)[C@H](O)[C@@H]1O` (relative stereo) [Compound I-009, (rac)-((1R,2R,3S,4R)-4-{[5-chloro-2-(1-naphthyl)pyrazolo[1,5-a]pyrimidin-7-yl]amino}-2,3-dihydroxycyclopentyl)methyl rel-sulfamate], the inhibition at 0.111 µM amounted to 42%.

For the compound `NS(=O)(=O)OC[C@H]1C[C@@H](Nc2ccnc3cc(-c4cccc5c4oc4ccccc45)nn23)[C@H](O)[C@@H]1O` (relative stereo) [Compound I-010, (rac)-((1R,2R,3S,4R)-4-(2-(dibenzo[b,d]furan-4-yl)pyrazolo[1,5-a]pyrimidin-7-ylamino)-2,3-dihydroxycyclopentyl)methyl rel-sulfamate], the inhibition at 0.111 µM amounted to 100%.

`NS(=O)(=O)OC[C@H]1C[C@@H](Nc2ccnc3cc(-c4ccc(Cl)cc4Cl)nn23)[C@H](O)[C@@H]1O` (relative stereo) [Compound I-013, (rac)-[(1R,2R,3S,4R)-4-{[2-(2,4-dichlorophenyl)pyrazolo[1,5-a]pyrimidin-7-yl]amino}-2,3-dihydroxycyclopentyl]methyl rel-sulfamate]: the inhibition at 0.111 µM worked out at 84%.

In the case of `COc1ccc(-c2cc3nc(Cl)cc(N[C@@H]4C[C@H](COS(N)(=O)=O)[C@@H](O)[C@H]4O)n3n2)cc1` (relative stereo) [Compound I-014, (rac)-[(1R,2R,3S,4R)-4-{[5-chloro-2-(4-methoxyphenyl)pyrazolo[1,5-a]pyrimidin-7-yl]amino}-2,3-dihydroxycyclopentyl]methyl rel-sulfamate], the inhibition at 0.111 µM stood at 30%.

Turning to `CC(C)(C)c1cccc(-c2cc3nccc(N[C@@H]4C[C@H](COS(N)(=O)=O)[C@@H](O)[C@H]4O)n3n2)c1` (relative stereo) [Compound I-015, (rac)-((1R,2R,3S,4R)-4-((2-(3-(tert-Butyl)phenyl)pyrazolo[1,5-a]pyrimidin-7-yl)amino)-2,3-dihydroxycyclopentyl)methyl rel-sulfamate], the inhibition at 0.111 µM was determined as 100%.
